#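 Cells were grown in 96-well plates and exposed to each compound for 48 hours at five concentrations; endpoints were interpolated linearly between bracketing concentrations, or set to the highest concentration if not reached. Abbreviation: GI50, concentration required for 50% inhibition of growth. TGI denotes the concentration required for complete inhibition of growth.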
# What was measured:
# Assay in all cases: inhibition of tumour cell growth, NCI panel, 48 h
# SNB-75 CNS = system: SNB-75 CNS
# SK-OV-3 ovarian = system: SK-OV-3 ovarian
# UO-31 renal = system: UO-31 renal
# MCF7 breast = system: MCF7 breast
# PC-3 prostate = system: PC-3 prostate
# OVCAR-4 ovarian = system: OVCAR-4 ovarian
# NCI-H460 lung = system: NCI-H460 lung
# SK-MEL-2 melanoma = system: SK-MEL-2 melanoma
# SF-539 CNS = system: SF-539 CNS
# NCI/ADR-RES ovarian = system: NCI/ADR-RES ovarian
# HOP-62 NSCLC = system: HOP-62 NSCLC
# MOLT-4 leukemia = system: MOLT-4 leukemia
# OVCAR-5 ovarian = system: OVCAR-5 ovarian
# T-47D breast = system: T-47D breast
# SF-295 CNS = system: SF-295 CNS
# CCRF-CEM leukemia = system: CCRF-CEM leukemia
# SK-MEL-5 melanoma = system: SK-MEL-5 melanoma
# OVCAR-3 ovarian = system: OVCAR-3 ovarian
# HT29 colon = system: HT29 colon
# MDA-MB-435 = system: MDA-MB-435
# RPMI-8226 leukemia = system: RPMI-8226 leukemia
# U251 CNS = system: U251 CNS
# KM12 colon = system: KM12 colon
# RXF 393 renal = system: RXF 393 renal
# NCI-H522 lung = system: NCI-H522 lung
# SNB-19 CNS = system: SNB-19 CNS
# NCI-H23 lung = system: NCI-H23 lung
# HL-60(TB) leukemia = system: HL-60(TB) leukemia
# SF-268 CNS = system: SF-268 CNS
# LOX IMVI melanoma = system: LOX IMVI melanoma
# HCT-116 colon = system: HCT-116 colon
# HOP-92 NSCLC = system: HOP-92 NSCLC
# A549 NSCLC = system: A549 NSCLC
# SW-620 colon = system: SW-620 colon
# 786-0 renal = system: 786-0 renal
# M14 melanoma = system: M14 melanoma
# K-562 leukemia = system: K-562 leukemia
# BT-549 breast = system: BT-549 breast
# SK-MEL-28 melanoma = system: SK-MEL-28 melanoma
# ACHN renal = system: ACHN renal
# SN12C renal = system: SN12C renal
# DU-145 prostate = system: DU-145 prostate
# CAKI-1 renal = system: CAKI-1 renal
# HCC-2998 colon = system: HCC-2998 colon
# COLO 205 colon = system: COLO 205 colon
# A498 renal = system: A498 renal
# HS 578T breast = system: HS 578T breast
# OVCAR-8 ovarian = system: OVCAR-8 ovarian
# EKVX NSCLC = system: EKVX NSCLC
# TK-10 renal = system: TK-10 renal
# HCT-15 colon = system: HCT-15 colon
# MALME-3M melanoma = system: MALME-3M melanoma
# UACC-257 melanoma = system: UACC-257 melanoma
# MDA-MB-231 breast = system: MDA-MB-231 breast
# IGROV1 ovarian = system: IGROV1 ovarian
# NCI-H226 lung = system: NCI-H226 lung
# UACC-62 melanoma = system: UACC-62 melanoma
compound,measurement,setting,value
COc1cc(Nc2c(C#N)[n+]([O-])c3ccccc3[n+]2[O-])cc(OC)c1OC,TGI,SNB-75 CNS,> 100 µM
same,TGI,SK-OV-3 ovarian,67.4 µM
same,TGI,UO-31 renal,> 100 µM
same,TGI,MCF7 breast,59 µM
same,TGI,PC-3 prostate,> 100 µM
same,TGI,OVCAR-4 ovarian,> 100 µM
same,TGI,NCI-H460 lung,> 100 µM
same,TGI,SK-MEL-2 melanoma,> 100 µM
same,TGI,SF-539 CNS,> 100 µM
same,TGI,NCI/ADR-RES ovarian,51 µM
same,TGI,HOP-62 NSCLC,> 100 µM
same,TGI,MOLT-4 leukemia,> 100 µM
same,TGI,OVCAR-5 ovarian,54.7 µM
same,TGI,T-47D breast,48.2 µM
same,TGI,SF-295 CNS,> 100 µM
same,TGI,CCRF-CEM leukemia,> 100 µM
same,TGI,SK-MEL-5 melanoma,54.1 µM
same,TGI,OVCAR-3 ovarian,> 100 µM
same,TGI,HT29 colon,> 100 µM
same,TGI,MDA-MB-435,> 100 µM
same,TGI,RPMI-8226 leukemia,> 100 µM
same,TGI,U251 CNS,> 100 µM
same,TGI,KM12 colon,> 100 µM
same,TGI,RXF 393 renal,> 100 µM
same,TGI,NCI-H522 lung,> 100 µM
same,TGI,SNB-19 CNS,> 100 µM
same,TGI,NCI-H23 lung,38.2 µM
same,TGI,HL-60(TB) leukemia,> 100 µM
same,TGI,SF-268 CNS,> 100 µM
same,TGI,LOX IMVI melanoma,> 100 µM
same,TGI,HCT-116 colon,29.9 µM
same,TGI,HOP-92 NSCLC,> 100 µM
same,TGI,A549 NSCLC,> 100 µM
same,TGI,SW-620 colon,> 100 µM
same,TGI,786-0 renal,49.8 µM
same,TGI,M14 melanoma,36 µM
same,TGI,K-562 leukemia,> 100 µM
same,TGI,BT-549 breast,> 100 µM
same,TGI,SK-MEL-28 melanoma,> 100 µM
same,TGI,ACHN renal,> 100 µM
same,TGI,SN12C renal,> 100 µM
same,TGI,DU-145 prostate,> 100 µM
same,TGI,CAKI-1 renal,> 100 µM
same,TGI,HCC-2998 colon,86 µM
same,TGI,COLO 205 colon,28.7 µM
same,TGI,A498 renal,> 100 µM
same,TGI,HS 578T breast,> 100 µM
same,TGI,OVCAR-8 ovarian,> 100 µM
same,TGI,EKVX NSCLC,> 100 µM
same,TGI,TK-10 renal,> 100 µM
same,TGI,HCT-15 colon,> 100 µM
same,TGI,MALME-3M melanoma,> 100 µM
same,TGI,UACC-257 melanoma,67.2 µM
O=C(O)CN(CCN(CC(=O)O)CC(=O)O)CC(=O)O,GI50,SNB-75 CNS,> 100 µM
same,TGI,SNB-75 CNS,> 100 µM
same,GI50,SK-OV-3 ovarian,> 100 µM
same,TGI,SK-OV-3 ovarian,> 100 µM
same,GI50,UO-31 renal,> 100 µM
same,TGI,UO-31 renal,> 100 µM
same,GI50,MCF7 breast,> 100 µM
same,TGI,MCF7 breast,> 100 µM
same,GI50,PC-3 prostate,> 100 µM
same,TGI,PC-3 prostate,> 100 µM
same,GI50,OVCAR-4 ovarian,> 100 µM
same,TGI,OVCAR-4 ovarian,> 100 µM
same,GI50,NCI-H460 lung,> 100 µM
same,TGI,NCI-H460 lung,> 100 µM
same,GI50,SK-MEL-2 melanoma,> 100 µM
same,TGI,SK-MEL-2 melanoma,> 100 µM
same,GI50,SF-539 CNS,> 100 µM
same,TGI,SF-539 CNS,> 100 µM
same,GI50,HOP-62 NSCLC,> 100 µM
same,TGI,HOP-62 NSCLC,> 100 µM
same,GI50,MOLT-4 leukemia,> 100 µM
same,TGI,MOLT-4 leukemia,> 100 µM
same,GI50,T-47D breast,> 100 µM
same,TGI,T-47D breast,> 100 µM
same,GI50,SF-295 CNS,> 100 µM
same,TGI,SF-295 CNS,> 100 µM
same,GI50,CCRF-CEM leukemia,> 100 µM
same,TGI,CCRF-CEM leukemia,> 100 µM
same,GI50,SK-MEL-5 melanoma,> 100 µM
same,TGI,SK-MEL-5 melanoma,> 100 µM
same,GI50,OVCAR-3 ovarian,> 100 µM
same,TGI,OVCAR-3 ovarian,> 100 µM
same,GI50,HT29 colon,> 100 µM
same,TGI,HT29 colon,> 100 µM
same,GI50,MDA-MB-435,> 100 µM
same,TGI,MDA-MB-435,> 100 µM
same,GI50,RPMI-8226 leukemia,> 100 µM
same,TGI,RPMI-8226 leukemia,> 100 µM
same,GI50,U251 CNS,> 100 µM
same,TGI,U251 CNS,> 100 µM
same,GI50,MDA-MB-231 breast,> 100 µM
same,TGI,MDA-MB-231 breast,> 100 µM
same,GI50,KM12 colon,> 100 µM
same,TGI,KM12 colon,> 100 µM
same,GI50,IGROV1 ovarian,> 100 µM
same,TGI,IGROV1 ovarian,> 100 µM
same,GI50,RXF 393 renal,> 100 µM
same,TGI,RXF 393 renal,> 100 µM
same,GI50,NCI-H522 lung,> 100 µM
same,TGI,NCI-H522 lung,> 100 µM
same,GI50,SNB-19 CNS,> 100 µM
same,TGI,SNB-19 CNS,> 100 µM
same,GI50,SF-268 CNS,> 100 µM
same,TGI,SF-268 CNS,> 100 µM
same,GI50,LOX IMVI melanoma,> 100 µM
same,TGI,LOX IMVI melanoma,> 100 µM
same,GI50,HCT-116 colon,> 100 µM
same,TGI,HCT-116 colon,> 100 µM
same,GI50,A549 NSCLC,> 100 µM
same,TGI,A549 NSCLC,> 100 µM
same,GI50,NCI-H226 lung,> 100 µM
same,TGI,NCI-H226 lung,> 100 µM
same,GI50,SW-620 colon,> 100 µM
same,TGI,SW-620 colon,> 100 µM
same,GI50,UACC-62 melanoma,> 100 µM
same,TGI,UACC-62 melanoma,> 100 µM
same,GI50,786-0 renal,> 100 µM
same,TGI,786-0 renal,> 100 µM
same,GI50,M14 melanoma,> 100 µM
same,TGI,M14 melanoma,> 100 µM
same,GI50,K-562 leukemia,> 100 µM
same,TGI,K-562 leukemia,> 100 µM
same,GI50,BT-549 breast,> 100 µM
same,TGI,BT-549 breast,> 100 µM
same,GI50,SK-MEL-28 melanoma,> 100 µM
same,TGI,SK-MEL-28 melanoma,> 100 µM
same,GI50,ACHN renal,> 100 µM
same,TGI,ACHN renal,> 100 µM
same,GI50,DU-145 prostate,> 100 µM
same,TGI,DU-145 prostate,> 100 µM
same,GI50,CAKI-1 renal,> 100 µM
same,TGI,CAKI-1 renal,> 100 µM
same,GI50,COLO 205 colon,> 100 µM
same,TGI,COLO 205 colon,> 100 µM
same,GI50,HS 578T breast,> 100 µM
same,TGI,HS 578T breast,> 100 µM
same,GI50,OVCAR-8 ovarian,> 100 µM
same,TGI,OVCAR-8 ovarian,> 100 µM
same,GI50,EKVX NSCLC,> 100 µM
same,TGI,EKVX NSCLC,> 100 µM
same,GI50,TK-10 renal,> 100 µM
same,TGI,TK-10 renal,> 100 µM
same,GI50,HCT-15 colon,> 100 µM
same,TGI,HCT-15 colon,> 100 µM
same,GI50,MALME-3M melanoma,> 100 µM
same,TGI,MALME-3M melanoma,> 100 µM
same,GI50,UACC-257 melanoma,> 100 µM
same,TGI,UACC-257 melanoma,> 100 µM
